Usually MIC stands for the lowest concentration that inhibits growth of the organism.

Results on one compound are retold here after patent US20210388012A1, “METHODS AND COMPOSITIONS FOR PRODRUG FORMS OF SPECTINOMYCIN AND SPECTINAMIDE ANALOGS” (priority 2018, published 2021).

SMILES strings stand for the structures.

A short description of series [1]: PlasmaLyte A stability study. The series is classed as physicochemical. The conditions noted are these: room temperature; for % remaining: 10 mg/mL in PlasmaLyte A and milli-Q water (50:50). As to the method: (§1) LC-MS Method 1. Quantitative determination of the amount of a disclosed compound present in blood, plasma, or urinary can be determined by LC-MS/MS methods. Briefly, a suitable method involves use of calibrants (0.976, 1.95, 3.91, 7.81, 15.63, 31.25, 62.5, 125, 250, 500, 1000 ng/mL) were in sample matrix (e.g., rat plasma, blood or urine). A separate solution of disclosed compound (independent of calibrants) is used to prepare quality controls. Appropriate volumes of working solutions are added to the sample matrix to yield the final concentrations of 1, 50, 1000 ng/mL. Linearity for calibrants in duplicate is assessed by subjecting the spiked concentrations and the respective peak areas to least-square linear regression analysis with and without intercepts, and a weighted least-square regression (1/x or 1/x^2). The lowest limit of quantitation (LLOQ) in the standard curve measured with acceptable accuracy and precision for a disclosed compound from rat plasma has been previously established as 0.976 ng/mL for a representative compound, 1810. All samples are precipitated by the addition of 4-volumes (100 μL) of IS, 1369 (10 ng/mL) in methanol to a volume (25 μL) of plasma/urine test sample. The samples are vortexed (Fisher scientific, USA) for 30 sec and centrifuged at 10,000×g for 10 min at 4° C. and the supernatants are collected for LC-MS/MS analysis. Chromatographic separation is carried out using a Shimadzu Nexera XR (LC-20ADXR) liquid chromatograph (Shimadzu Corporation, USA) consisting of two pumps, online degasser, system controller and an auto sampler. Mobile phase consisting of a) water with 1.6% nonafluoropentanoic acid and 0.7% formic acid b) 90% acetonitrile with 0.8% nonafluoropentanoic acid and 0.35% formic acid can be used at a flow rate of 0.5 rnLirnin in gradient mode. A Waters® Symmetry ® 3.5μ C8, 50×2.1 mm column (Waters, Milford, Mass.) is used for the separation. Samples (5 μL) are injected on column and the eluate is provided directly to an API 5500 triple quadruple mass spectrometer (Applied Biosystems, Foster City, Calif.) equipped with a turbospray ion source operated in the positive ion mode. The optimized multiple reactions monitoring (MRM) conditions for 3408 (549.2A207.1), 1810 (469.2^207.1) and IS (418.3^207.1) are monitored with a declustering potential of 45 V and collision energy of 25 eV. Data are acquired and processed with Analyst software version 1.6.2 (Applied Biosystems, Foster City, Calif.).
Stability of compound 3408 was determined in a mixture of PlasmaLyte A and milli-Q water (50:50) at room temperature. Briefly, a 10 mg/mL solution of compound 3408 was prepared in triplicate and samples were collected (0, 1, 2, 3, 4, 5, 6 h). These samples were processed by addition of 4-volumes of methanol and quantitated by LC-MS/MS method disclosed herein in LC-MS Method 1. The percentage drug remaining at each hour was calculated with respect to the concetration at the initial time point.

Series [2] deals with Mycobacterium smegmatis 70S bacterial ribosomes. In words: Ribosomal inhibition assay (luciferase-based protein synthesis inhibition). Type of series: biochemical. As to conditions: purified M. smegmatis 70S ribosomes, firefly luciferase mRNA. The protocol:
In vitro activity was also assessed using a ribosomal inhibition assay. Briefly, luciferase-based protein synthesis inhibition assays were performed in translation reaction as described previously (Bruell, et al. Biochemistry. 2008 47 (34), 8828-8839), using purified Mycobacterium smegmatis 70S bacterial ribosomes and firefly luciferase mRNA prepared in vitro using T7 RNA polymerase. IC50 values represent the drug concentration that inhibits luciferase activity by 50%.

Series [3] can be described thus: Pharmacokinetic study in rat. Type of series: in vivo, Sprague-Dawley rats. The conditions noted are these: intravenous. The protocol:
as §1
Pharmacokinetic assessment of the disclosed compounds can be determined in a rat model as described herein. Briefly, catheterized male Sprague-Dawley rats from Harlan Bioscience (Indianapolis, Ind.), weighing 200-250 g, are kept at a 12 h light/dark cycle with access to food and water ad libitum. The procedures are approved by the Institutional Animal Care and Use Committee of the University of Tennessee Health Science Center. Formulations of a disclosed compound are prepared in water (50%) and PlasniaLyte A (50%). Test compound can be administered either via intravenous route (10 mg/kg) via femoral vein catheter with the study conducted using a group of 6 rats. Blood (250 μL) was collected via the jugular vein catheter at 0.08, 0.25, 0.5, 0.75, 1, 1.5, 2, 4, 6, 8, 10, 24 and 48 h after drug administration. Plasma was immediately separated by centrifugation (6,000×g for 10 min at 4° C.) and stored at −70° C. until analysis. The plasma concentration was determined as described herein above in LC-MS Method 1, and plasma concentration-time courses were fitted to a non-compartmental model using Phoenix WinNonlin 7.0 (Certara L. P., Princeton, NJ). Area under the concentration-time profile curve (AUC) was calculated by the log trapezoidal rule by log-linear regression and extrapolated to infinity by addition of the value Ct/λZ, where Ct is the concentration at the last time point, and λZ the terminal slope (determined by linear regression) of the log concentration-time curve. […]

The test system of series [4] is M. tuberculosis H37Rv. The series is described as follows: Minimum inhibitory concentration (MIC), microbroth dilution. Type of series: cell-based. The conditions noted are these: Mycobacterium tuberculosis, H37RV, 168 h, read-out: MIC (H37Rv). On the technique in general: In broth dilution the organism is exposed to a series of concentrations in liquid medium.

On to `CN[C@@H]1[C@H](O)[C@H](NC)[C@H]2O[C@]3(O)[C@H](O[C@@H]2[C@H]1O)O[C@H](C)C[C@H]3NC(=O)Cc1ccc(OP(=O)(O)O)cn1` [Compound 3408, 6-(2-oxo-2-(((2R,4R,4a5,5aR,6S,7S,8R,9S,9aR,10aS)-4a,7,9-trihydroxy-2-methyl-6,8-bis(methylamino)decahydro-2H-benzo[b]pyrano[2,3-e][1,4]dioxin-4-yl)amino)ethyl)pyridin-3-yl dihydrogen phosphate], for which the “% remaining” value in series [1] (hour 0) came out at 100%; in series [1] (hour 1), 103%; in series [1] (hour 2), 101%; in series [1] (hour 3) it was 105%; in series [1] (hour 4) it was 104%; in series [1] (hour 5), 104%. In addition, the “% remaining” value in series [1] (hour 6) amounted to 104%. Also, the “time stable in solution” value in series [1] (10 mg/mL in Plasmalyte A and milli-Q water mixture (50:50)) was “at least 6 hours”. Also, in series [2], the “IC50 (M. smegmatis)” value was determined as 6.70 mg/L. The “In vivo conversion of prodrug to parent (in words)” value in series [3] is “rapidly converted in vivo to the parent drug form”. Also, the MIC in series [4] is 100 mg/L.
